Assay results reported in publication PMC3781598 (Pharmaceutical research, 2013).
Several values for one entry are separate records, joined by “and”; a condition that tells them apart may be missing. Equal values may be shown once. Entries after “also recorded” stand apart in the source; their conditions may differ. Read-outs that look alike come from different tables or passages of the source.

Key:
human CYP2A6 [1] = biological target: T1, human CYP2A6 (Homo sapiens, UniProt P11509); experiment: Spectral ligand binding assay; conditions: for Kd 2A6 / Kd: ≥ = minimal Kd value; for Spectral shift type 2A6: UV/Vis difference spectra
T1 sequence (P11509 with tags, fused parts or gaps limits assumed): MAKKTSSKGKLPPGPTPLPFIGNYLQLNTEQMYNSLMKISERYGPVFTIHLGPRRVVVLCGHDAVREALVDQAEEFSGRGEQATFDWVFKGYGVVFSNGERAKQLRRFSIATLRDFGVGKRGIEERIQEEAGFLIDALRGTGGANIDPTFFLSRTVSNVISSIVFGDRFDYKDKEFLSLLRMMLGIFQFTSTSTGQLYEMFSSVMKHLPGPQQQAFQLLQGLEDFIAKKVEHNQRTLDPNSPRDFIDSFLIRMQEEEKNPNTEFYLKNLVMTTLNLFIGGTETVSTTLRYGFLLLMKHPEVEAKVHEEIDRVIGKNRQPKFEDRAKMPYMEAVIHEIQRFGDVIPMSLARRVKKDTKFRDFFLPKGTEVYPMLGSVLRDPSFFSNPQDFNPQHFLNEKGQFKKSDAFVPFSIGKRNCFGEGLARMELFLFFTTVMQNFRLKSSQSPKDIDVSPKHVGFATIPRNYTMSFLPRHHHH

CYP2A6 / CYP2A13 [2] = experiment: Coumarin metabolism assay; conditions: human
human CYP2A13 [3] = biological target: T2, human CYP2A13 (Homo sapiens, UniProt Q16696); experiment: Coumarin metabolism assay; conditions: for α (mixed inhibition) 2A13: mixed model inhibition
T2 sequence (Q16696 with tags, fused parts or gaps limits assumed): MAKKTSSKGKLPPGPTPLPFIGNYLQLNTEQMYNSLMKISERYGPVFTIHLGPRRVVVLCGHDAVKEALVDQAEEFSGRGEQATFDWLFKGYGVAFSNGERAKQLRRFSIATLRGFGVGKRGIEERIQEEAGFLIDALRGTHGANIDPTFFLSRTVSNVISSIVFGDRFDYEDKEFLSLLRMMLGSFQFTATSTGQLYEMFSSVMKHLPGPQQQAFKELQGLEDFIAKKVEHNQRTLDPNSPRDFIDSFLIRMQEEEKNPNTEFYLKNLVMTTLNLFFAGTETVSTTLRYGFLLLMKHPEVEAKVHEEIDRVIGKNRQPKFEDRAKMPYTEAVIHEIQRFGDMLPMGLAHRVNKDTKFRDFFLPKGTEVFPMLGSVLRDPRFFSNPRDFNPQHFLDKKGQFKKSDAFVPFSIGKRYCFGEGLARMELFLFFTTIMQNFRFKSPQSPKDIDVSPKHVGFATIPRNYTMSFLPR

human CYP2A6 [4] = biological target: T1, human CYP2A6; experiment: Coumarin metabolism assay; conditions: for α (mixed inhibition) 2A6: mixed model inhibition
human CYP2A13 [5] = biological target: T3, human CYP2A13 (Homo sapiens, UniProt Q16696); experiment: Spectral ligand binding assay; conditions: for Spectral shift type 2A13: UV/Vis difference spectra; for Kd: Kd 2A13, spectral titration, ≥ = minimal Kd value
T3 sequence (Q16696 25-494): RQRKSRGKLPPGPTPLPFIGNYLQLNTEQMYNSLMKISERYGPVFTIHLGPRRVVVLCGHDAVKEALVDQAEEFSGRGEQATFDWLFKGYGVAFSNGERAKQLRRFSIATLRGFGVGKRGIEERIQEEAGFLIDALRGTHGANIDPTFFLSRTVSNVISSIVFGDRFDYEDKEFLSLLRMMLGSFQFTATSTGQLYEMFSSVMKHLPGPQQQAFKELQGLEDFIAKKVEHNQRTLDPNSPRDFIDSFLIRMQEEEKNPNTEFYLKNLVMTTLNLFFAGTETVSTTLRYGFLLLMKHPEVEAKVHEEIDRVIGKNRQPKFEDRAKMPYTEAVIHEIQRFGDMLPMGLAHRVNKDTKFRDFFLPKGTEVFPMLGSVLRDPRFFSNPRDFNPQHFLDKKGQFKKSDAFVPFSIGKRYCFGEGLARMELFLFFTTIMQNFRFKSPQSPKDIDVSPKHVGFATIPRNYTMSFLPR

CYP2A6 / CYP2A13 [6] = experiment: Spectral ligand binding assay; design: species or system human; conditions: human
human CYP2A13 [7] = experiment: Spectral ligand binding assay; conditions: ratio of the CYP2A6 value to the CYP2A13 value
human CYP2A13 [8] = experiment: Coumarin metabolism assay; conditions: ratio of the CYP2A6 value to the CYP2A13 value
[9] = pH 7.4, probe coumarin (7-hydroxylation), Selectivity Ki (2A6)/ Ki (2A13), ratio of the CYP2A6 value to the CYP2A13 value
[10] = Selectivity Kd (2A6)/ Kd (2A13), ratio of the CYP2A6 value to the CYP2A13 value
[11] = read-out: Kd 2A6, spectral titration
[12] = read-out: Ki 2A13, coumarin substrate
[13] = read-out: Ki 2A6, coumarin substrate

| Compound | Kd 2A6 (human CYP2A6 [1]; spectral titration) | selectivity ratio at 10 min (CYP2A6 / CYP2A13 [2]; [9]) | Ki (human CYP2A13 [3]) | Ki (human CYP2A6 [4]) | Spectral shift type 2A13 (human CYP2A13 [5]) | Kd (human CYP2A6 [1]; Kd 2A6, spectral titration) | Spectral shift type 2A6 (human CYP2A6 [1]) | selectivity ratio at 10 min (CYP2A6 / CYP2A13 [2]; pH 7.4) | Mode of inhibition 2A6 (human CYP2A6 [4]; coumarin substrate) | α (mixed inhibition) 2A6 (human CYP2A6 [4]; coumarin substrate) | Kd (human CYP2A13 [5]) | selectivity ratio (CYP2A6 / CYP2A13 [6]) | Mode of inhibition 2A13 (human CYP2A13 [3]; coumarin substrate) | α (mixed inhibition) 2A13 (human CYP2A13 [3]; coumarin substrate) | selectivity ratio (CYP2A6 / CYP2A13 [6]; [10]) | Selectivity Kd (2A6)/ Kd (2A13) (human CYP2A13 [7]) | Kd (human CYP2A6 [1]; [11]) | Ki (human CYP2A13 [3]; [12]) | Ki (human CYP2A6 [4]; [13]) | Selectivity Ki (2A6)/ Ki (2A13) (human CYP2A13 [8]) |
| --- | --- | --- | --- | --- | --- | --- | --- | --- | --- | --- | --- | --- | --- | --- | --- | --- | --- | --- | --- | --- |
| Fc1ccccc1CN1CCOCC1 [Compound 2, 4-(2-fluorobenzyl)morpholine] | no spectral shift; also recorded: No ^** Spectral Shift | ≥ 2.6 | 379 µM | ≥ 1000 µM | I | – | – | – | – | – | – | – | – | – | – | – | – | – | – | – |
| CCc1ccccc1CN1CCOCC1 [Compound 6, 4-(2-ethylbenzyl)morpholine] | – | – | 16.9 µM | 818 µM | I | ≥ 575 µM | I | 48.4 | mixed inhibition | 13.3 | 4.5 µM | ≥ 128 | – | – | – | – | – | – | – | – |
| Clc1cccc(Cl)c1Cn1ccnc1 [Compound 17, 1-(2,6-dichlorobenzyl)-1H-imidazole] | – | 0.4 | 2.1 µM | 0.9 µM | – | 0.9 µM | – | – | purely competitive inhibitors | – | < 0.1 µM | – | mixed inhibition; also recorded: mixed inhibitors | 2.0 | ≥ 9 | – | – | – | – | – |
| CC1CN(Cc2cccc(Cl)c2Cl)CC(C)O1 (stereo not shown) [Compound 14, 4-(2,3-dichlorobenzyl)-2,6-dimethylmorpholine] | – | ≥ 2.6 | 646 µM | ≥ 1000 µM | I | ≥ 462 µM | I | – | – | – | 37 µM | – | mixed inhibition | 19.6 | ≥ 12.5 | – | – | – | – | – |
| CN1CCN(Cc2c(Cl)cccc2Cl)CC1 [Compound 22, 1-(2,6-dichlorobenzyl)-4-methylpiperazine] | weak or no spectral shifts; also recorded: No Spectral Shift | – | ≥ 1000 µM | ≥ 1000 µM | I | – | – | – | – | – | ≥ 362 µM | – | – | – | – | – | – | – | – | – |
| Clc1cccc(CN2CCOCC2)c1 [Compound 10, 4-(3-chlorobenzyl)morpholine] | – | 1.4 | 260 µM | 352 µM | I | ≥ 400 µM | I [drawing 12] II | – | – | – | 69.1 ± 30.2 µM | – | – | – | ≥ 5.8 | – | – | – | – | – |
| Clc1ccsc1CN1CCOCC1 [Compound 20, 4-((3-chlorothiophen-2-yl)methyl)morpholine] | – | 7.9 | 54.7 µM | 433 µM | I | ≥ 239 µM | I | – | – | – | 10.7 µM | – | – | – | ≥ 22.3 | – | – | – | – | – |
| Cc1ccccc1CN1CCOCC1 [Compound 5, 4-(2-methylbenzyl)morpholine] | No ^** Spectral Shift | ≥ 14.9 | 66.9 µM | ≥ 1000 µM | I | – | – | – | – | – | 18.5 µM | – | – | – | – | – | – | – | – | – |
| c1ccc2c(CN3CCOCC3)cccc2c1 [Compound 15, 4-(naphthalen-1-ylmethyl)morpholine] | Weak Spectral Shift | 2.3 | 219 ± 18.7 µM | 500 µM | I | – | – | – | mixed inhibition | 3.1 | 41.8 µM and 121 µM | – | – | – | – | – | – | – | – | – |
| Cc1cccc(Cl)c1CN1CCOCC1 [Compound 9, 4-(2-chloro-6-methylbenzyl)morpholine] | – | 15 | 19.7 ± 1.2 µM | 296 µM | I | 515 µM | I | – | – | – | 1.1 µM | – | – | – | > 400 | 468 | – | – | – | – |
| CC(c1ccccc1Cl)N1CCOCC1 (stereo not shown) [Compound 23, 4-(1-(2-chlorophenyl)ethyl)morpholine] | – | 6.2 | 15.9 µM | 98.5 µM | I | ≥ 538 µM | I | – | – | – | 7.6 ± 2.8 µM | – | – | – | ≥ 70.8 | – | – | – | – | – |
| c1csc(CN2CCOCC2)c1 [Compound 19, 4-(thiophen-2-ylmethyl)morpholine] | – | 2.1 | 131 µM | 270 µM | I | ≥ 464 µM | I | – | – | – | 30.8 µM | – | – | – | ≥ 15.1 | – | – | – | – | – |
| Benzylmorpholine [Compound 1] | – | – | – | – | – | – | I [drawing 2] II | – | mixed inhibition | 3.4 | – | – | – | – | – | – | ≥ 300 µM | 477 µM | 675 µM | – |
| Clc1ccccc1Cn1ccnc1 [Compound 16, 1-(2-chlorobenzyl)-1H-imidazole] | – | 1 | 2.8 µM | 2.9 µM | – | 0.1 µM | – | – | purely competitive inhibitors | – | < 0.1 µM | – | mixed inhibition; also recorded: mixed inhibitors | 3.9 | ≥ 1 | – | – | – | – | – |
| CN1CCN(Cc2ccccc2Cl)CC1 [Compound 21, 1-(2-chlorobenzyl)-4-methylpiperazine] | weak or no spectral shifts; also recorded: Weak Spectral Shift | – | ≥ 1000 µM | ≥ 1000 µM | I | – | – | – | – | – | 306 µM | – | – | – | – | – | – | – | – | – |
| Clc1cccc(Cl)c1CN1CCOCC1 [Compound 8, 4-(2,6-dichlorobenzyl)morpholine] | – | 13.7 | 18.1 µM | 237 µM | I | ≥ 522 µM | I | – | – | – | 1.3 µM | – | – | – | > 400 | – | – | – | – | – |
| Clc1ccc(CN2CCOCC2)c(Cl)c1 [Compound 13, 4-(2,4-dichlorobenzyl)morpholine] | – | ~9 | 113 ± 14 µM | 995 µM | I | ≥ 198 µM | I | – | – | – | 34.2 µM | – | – | – | ≥ 5.8 | – | – | – | – | 8.9 |
| Brc1ccccc1CN1CCOCC1 [Compound 4, 4-(2-bromobenzyl)morpholine] | No ^** Spectral Shift | – | 17.6 ± 3.1 µM | ≥ 1000 µM | I | – | – | ≥ 56.8 | – | – | 6.3 µM | – | – | – | – | – | – | – | – | – |
| Clc1ccc(CN2CCOCC2)cc1 [Compound 11, 4-(4-chlorobenzyl)morpholine] | – | 1 | 458 µM | 448 µM | I | ≥ 245 µM | I | – | – | – | 168 µM and 167 µM | – | – | – | ≥ 1.5 | – | – | – | – | – |
| Clc1cccc(CN2CCOCC2)c1Cl [Compound 12, 4-(2,3-dichlorobenzyl)morpholine] | – | ~9 | 88.9 µM | 836 µM | I | ≥ 305 µM | I | – | – | – | 30.8 ± 8.1 µM | – | – | – | ≥ 9.9 | – | – | – | – | 9.4 |
| Clc1ccccc1CCN1CCOCC1 [Compound 24, 4-(2-chlorophenethyl)morpholine] | – | – | – | – | – | – | – | – | – | – | – | – | – | – | – | – | ≥ 604 µM | 604 µM | ≥ 1000 µM | – |
